Experimental data taken from patent publication US20210346500A1, “PHOTOOXIDATIVE INACTIVATION OF PATHOGENS INCLUDING SARS-CoV-2” (laneg GmbH, priority 2020, published 2021).
“Also recorded” adds a separate entry of the source.

Key:
Assay type in all cases: in vivo, human
[1] = system: SARS CoV-2; settings: active treatment group, 4 weeks after photodynamic treatments; ELISA not specific for SARS CoV vs SARS CoV-2
[2] = Treatment related adverse events in the clinical study; settings: methylene blue + 660 nm irradiation, 300 patients
Description: (§1) The photodynamic excitation was performed using the Medlouxx PDT device, produced by laneg GmbH, Germany (www.medlouxx.com). The device applicator emits 660nm laser radiation with 240 mW power. The infected areas were irradiated for 5 minutes resulting in a dosage of about 72 J/cm2. This procedure: 1 min flushing followed by 5 minutes irradiation, was repeated 5 times, resulting in a total dosage of about 360 J/cm2. Before and immediately after the photodynamic treatments, the viral concentration was determined by PCR tests using the PCR real time testing facility ThermoFisher, QuantStudio 3.
(§2) We have treated 300 patients with the active treatment protocol and 300 patients with the placebo protocol described above. The active treatment group consisted of 164 men and 136 women, with an age range of 35-83 years. All patients signed informed consent prior to the start of the treatment protocol. The main inclusion citeria were fever, typical symptoms and a positive PCR test. The main exclusion criterium was a negative PCR test. Besides fever, we have found a significant variability in the initial presenting symptoms, like cough, loss of smell, loss of taste, headaches, fatigue and others.

[3] = system: SARS-CoV-2 (COVID-19); test: Placebo-controlled clinical study of photodynamic treatment: course of disease and mortality in COVID-19 patients
Description: The photosensitizer used was methylene blue as a 1% solution of methylthioninium-chloride dissolved in a 5% glucose solution. (Heltschl GmbH, Germany). The methylene blue solution was applied by flushing and gargling in the oral cavity and throat, and by spraying in the nasal cavity.
as §1
The placebo patients received exactly same treatment procedure except that all placebo patients were treated with covered radiation heads. The patients were not able to distinguish an active versus a placebo treatment due to the filter function of the laser safety goggles.
as §2
We have characterized the course of the disease by the degree and duration of fever which was the most prominent symptom (see Table 1): […]

[4] = max fever 39.2° C., 3 weeks, methylene blue + 660 nm irradiation, 300 patients
[5] = max fever 39.5° C., 4-6 weeks, methylene blue + 660 nm irradiation, 300 patients
[6] = moderate = max fever 38.7° C., 2 weeks, methylene blue + 660 nm irradiation, 300 patients

## CN(C)c1ccc2nc3ccc(=[N+](C)C)cc-3sc2c1 [methylene blue, methylthioninium-chloride]
[1]
  Patients with presence of antibodies (ELISA): 96%
[2]
  Treatment related adverse events / side effects: free of any side effects; also recorded: no treatment related adverse events
[3]; 300 patients, methylene blue + 660 nm irradiation
  Mortality Rate - Active Treatment Group: 0.7%
[3]; [4]
  Disease course Severe (Hospital Admission), Active Treatment Number: 6 patients
  Disease course Severe (Hospital Admission), Active Treatment Percentage: 2%
[3]; [5]
  Disease course Severe (Hospital/ICU Admission), Active Treatment Number: 2 patients
  Disease course Severe (Hospital/ICU Admission), Active Treatment Percentage: 0.6%
[3]; mild = max fever 37.7° C., 1 week, 1% methylene blue flushing/gargling/spraying + 660 nm, 240 mW, total about 360 J/cm2, 300 patients
  Disease course Mild, Active Treatment Number: 192 patients
[3]; mild = max fever 37.7° C., 1 week, methylene blue + 660 nm irradiation, 300 patients
  Disease course Mild, Active Treatment Percentage: 64%
[3]; [6]
  Disease course Moderate, Active Treatment Number: 99 patients
  Disease course Moderate, Active Treatment Percentage: 33%
[3]; vs. 19% in placebo, methylene blue + 660 nm irradiation
  Severe course of disease (both severe categories together), active treatment group: 2.6%
[3]; vs. 81% in placebo, methylene blue + 660 nm irradiation
  Attenuation of disease progression (mild plus moderate course), active treatment group: 97%
